Laboratory results as given in article PMC8770581 (ChemMedChem, 2021).

How the values were obtained:
[1] = Absorption/emission maxima and fluorescence quantum yield of free ligand in PBS; format: physicochemical; settings: free ligand in PBS
α-syn fibrils = α-syn fibrils (Homo sapiens, UniProt P37840); test: α-Synuclein fibril/ligand saturation binding assay
[2] = Kd α-syn (reported as no binding), α-syn fibrils, saturation binding
[3] = Kd α-syn, Table 1, synthetic α-syn fibrils 2.5 μM, 1 hour, mean ± SD (n = 3)

3-(3-(4-(Dimethylamino)phenyl)allylidene)chromane-2,4-dione [compound 27]
Absmax [1]: 442 | Emmax [1]: 661

O=C1/C(=C/C=C/c2ccc(Br)cc2)Cc2ccccc21 [compound 7, (E)-2-((E)-3-(4-Bromophenyl)allylidene)-2,3-dihydro-1H-inden-1-one]
Kd (α-syn fibrils; [2]): ≥ 2000 nM | Kd (α-syn fibrils; [3]): > 2000 nM | Absmax [1]: 332 | Emmax [1]: 430

O=C1/C(=C/C=C/c2ccc([N+](=O)[O-])cc2)Cc2ccccc21 [compound 10, (E)-2-((E)-3-(4-Nitrophenyl)allylidene)-2,3-dihydro-1H-inden-1-one]
Absmax [1]: 336 | Emmax [1]: 438

O=C1/C(=C/C=C/c2ccc(Br)cc2)Cc2ccc(O)cc21 [compound 11, (E)-2-((E)-3-(4-Bromophenyl)allylidene)-6-hydroxy-2,3-dihydro-1H-inden-1-one]
Kd (α-syn fibrils; [2]): ≥ 2000 nM | Kd (α-syn fibrils; [3]): > 2000 nM | Absmax [1]: 335 | Emmax [1]: 429

CN(C)c1ccc(/C=C/C=C2\Cc3ccc(O)cc3C2=O)cc1 [compound 12, (E)-2-((E)-3-(4-(Dimethylamino)phenyl)allylidene)-6-hydroxy-2,3-dihydro-1H-inden-1-one]
Kd (α-syn fibrils; [3]): 203 ± 15.9 nM | Absmax [1]: 406 | Emmax [1]: 614

O=C1/C(=C/C=C/c2ccc([N+](=O)[O-])cc2)Cc2ccc(O)cc21 [compound 13, (E)-6-Hydroxy-2-((E)-3-(4-nitrophenyl)allylidene)-2,3-dihydro-1H-inden-1-one]
Kd (α-syn fibrils; [3]): 726 ± 23.6 nM | Absmax [1]: 356 | Emmax [1]: 443

COc1cc(/C=C/C=C2\Cc3cc(F)cc(F)c3C2=O)ccc1O [compound 14, (E)-5,7-Difluoro-2-((E)-3-(4-hydroxy-3-methoxyphenyl)allylidene)-2,3-dihydro-1H-inden-1-one]
Kd (α-syn fibrils; [3]): 241 ± 47.9 nM | Absmax [1]: 338 | Emmax [1]: 545

O=C1/C(=C/C=C/c2ccc([N+](=O)[O-])cc2)Cc2cc(F)cc(F)c21 [compound 15, (E)-5,7-Difluoro-2-((E)-3-(4-nitrophenyl)allylidene)-2,3-dihydro-1H-inden-1-one]
Kd (α-syn fibrils; [3]): 398.1 ± 3.9 nM | Absmax [1]: 330 | Emmax [1]: 439

O=C1C(=C/C=C/c2ccccc2)C(=O)c2ccccc21 [compound 16, (E)-2-(3-Phenylallylidene)-1H-indene-1,3(2H)-dione]
Kd (α-syn fibrils; [3]): > 2000 nM | Absmax [1]: 331 | Emmax [1]: 421

O=C1C(=C/C=C/c2ccc(Br)cc2)C(=O)c2ccccc21 [compound 17, (E)-2-(3-(4-Bromophenyl)allylidene)-1H-indene-1,3(2H)-dione]
Kd (α-syn fibrils; [3]): > 2000 nM | Absmax [1]: 328 | Emmax [1]: 419

O=C1C(=C/C=C/c2ccc(F)cc2)C(=O)c2ccccc21 [compound 18, (E)-2-(3-(4-Fluorophenyl)allylidene)-1H-indene-1,3(2H)-dione]
Kd (α-syn fibrils; [3]): > 2000 nM | Absmax [1]: 332 | Emmax [1]: 421

CN(C)c1ccc(/C=C/C=C2C(=O)c3ccccc3C2=O)cc1 [compound 19, (E)-2-(3-(4-(Dimethylamino)phenyl)allylidene)-1H-indene-1,3(2H)-dione]
Absmax [1]: 416

COc1cc(/C=C/C=C2C(=O)c3ccccc3C2=O)cc(OC)c1O [compound 21, (E)-2-(3-(4-Hydroxy-3,5-dimethoxyphenyl)allylidene)-1H-indene-1,3(2H)-dione]
Kd (α-syn fibrils; [3]): 268 ± 11.7 nM | Absmax [1]: 434 | Emmax [1]: 450

O=C1C(=C/C=C/c2ccc([N+](=O)[O-])cc2)C(=O)c2ccccc21 [compound 22, (E)-2-(3-(4-Nitrophenyl)allylidene)-1H-indene-1,3(2H)-dione]
Kd (α-syn fibrils; [3]): 1330 ± 182 nM | Absmax [1]: 336 | Emmax [1]: 460

COc1cc(C=CC=C2C(=O)Oc3ccccc3C2=O)ccc1O [compound 25, 3-(3-(4-Hydroxy-3-methoxyphenyl)allylidene)chromane-2,4-dione]
Kd (α-syn fibrils; [3]): 116.3 ± 0.7 nM | Absmax [1]: 490 | Emmax [1]: 621

CN(C)c1ccc(C=CC=C2C(=O)Oc3ccccc3C2=O)cc1 [compound 26, 3-(3-(4-(Dimethylamino)phenyl)allylidene)chromane-2,4-dione]
Kd (α-syn fibrils; [3]): 119 ± 21.1 nM | Absmax [1]: 440 | Emmax [1]: 657

CN(C)c1ccc(C=CC=C2C(=O)Oc3ccc(Br)cc3C2=O)cc1 [compound 28, 6-Bromo-3-(3-(4-(dimethylamino)phenyl)allylidene)chromane-2,4-dione]
Kd (α-syn fibrils; [2]): ≥ 2000 nM | Kd (α-syn fibrils; [3]): > 2000 nM | Absmax [1]: 405

CN(C)c1ccc(-c2ccc(/C=C/C=C3\Cc4ccc(O)cc4C3=O)cc2)cc1 [compound 30, (E)-2-((E)-3-(4'-(Dimethylamino)-[1,1'-biphenyl]-4-yl)allylidene)-6-hydroxy-2,3-dihydro-1H-inden-1-one]
Absmax [1]: 414 | Emmax [1]: 597

O=C1/C(=C/C=C/c2ccc(-c3ccc(CO)cc3)cc2)Cc2ccc(O)cc21 [compound 31, (E)-6-Hydroxy-2-((E)-3-(4'-(hydroxymethyl)-[1,1'-biphenyl]-4-yl)allylidene)-2,3-dihydro-1H-inden-1-one]
Kd (α-syn fibrils; [3]): 126 ± 5 nM | Absmax [1]: 368 | Emmax [1]: 540

N#Cc1ccc(-c2ccc(/C=C/C=C3\Cc4ccc(O)cc4C3=O)cc2)s1 [compound 33, 5-(4-((E)-3-((E)-6-Hydroxy-1-oxo-1,3-dihydro-2H-inden-2-ylidene)prop-1-en-1-yl)phenyl)thiophene-2-carbonitrile]
Absmax [1]: 398 | Emmax [1]: 565

O=C(O)c1ccc(-c2ccc(/C=C/C=C3C(=O)c4ccccc4C3=O)cc2)cc1 [compound 34, (E)-4'-(3-(1,3-Dioxo-1,3-dihydro-2H-inden-2-ylidene)prop-1-en-1-yl)-[1,1'-biphenyl]-4-carboxylic acid]
Kd (α-syn fibrils; [3]): 1430 ± 46.8 nM | Absmax [1]: 358 | Emmax [1]: 409

Nc1cccc(-c2ccc(/C=C3/Cc4ccccc4C3=O)s2)c1 [compound 38, (Z)-2-((5-(3-Aminophenyl)thiophen-2-yl)methylene)-2,3-dihydro-1H-inden-1-one]
Kd (α-syn fibrils; [3]): 160 ± 10 nM | Absmax [1]: 408 | Emmax [1]: 563

CN(C)c1ccc(-c2ccc(/C=C3/Cc4ccccc4C3=O)s2)cc1 [compound 40, (Z)-2-((5-(4-(Dimethylamino)phenyl)thiophen-2-yl)methylene)-2,3-dihydro-1H-inden-1-one]
Kd (α-syn fibrils; [3]): 160 ± 7.1 nM | Absmax [1]: 413 | Emmax [1]: 597

CN(C)c1ncc(-c2ccc(/C=C3/Cc4ccccc4C3=O)s2)cn1 [compound 41, (Z)-2-((5-(2-(Dimethylamino)pyrimidin-5-yl)thiophen-2-yl)methylene)-2,3-dihydro-1H-inden-1-one]
Kd (α-syn fibrils; [3]): 272 ± 29.9 nM | Absmax [1]: 410 | Emmax [1]: 567

CN(C)c1ncc(-c2ccc(/C=C3/Cc4ccc(O)cc4C3=O)s2)cn1 [compound 43, (Z)-2-((5-(2-(Dimethylamino)pyrimidin-5-yl)thiophen-2-yl)methylene)-6-hydroxy-2,3-dihydro-1H-inden-1-one]
Kd (α-syn fibrils; [3]): 236 ± 10.4 nM | Absmax [1]: 386 | Emmax [1]: 572

O=C1/C(=C\c2ccc(-c3ccc(CO)cc3)s2)Cc2ccc(O)cc21 [compound 44, (Z)-6-Hydroxy-2-((5-(4-(hydroxymethyl)phenyl)thiophen-2-yl)methylene)-2,3-dihydro-1H-inden-1-one]
Kd (α-syn fibrils; [3]): 134 ± 19.2 nM | Absmax [1]: 412 | Emmax [1]: 545

O=C1/C(=C\c2cc(-c3ccc(CO)cc3)cs2)Cc2ccccc21 [compound 46, (Z)-2-((4-(4-(Hydroxymethyl)phenyl)thiophen-2-yl)methylene)-2,3-dihydro-1H-inden-1-one]
Kd (α-syn fibrils; [3]): 153 ± 7.9 nM | Absmax [1]: 368 | Emmax [1]: 454

O=C1/C(=C\c2cc(-c3cccnc3)cs2)Cc2ccccc21 [compound 47, (Z)-2-((4-(Pyridin-3-yl)thiophen-2-yl)methylene)-2,3-dihydro-1H-inden-1-one]
Kd (α-syn fibrils; [3]): 333 ± 28.3 nM | Absmax [1]: 340 | Emmax [1]: 404

O=C1/C(=C\c2ccc(-c3ccc(CO)cc3)s2)CCc2ccccc21 [compound 49, (Z)-2-((5-(4-(Hydroxymethyl)phenyl)thiophen-2-yl)methylene)-3,4-dihydronaphthalen-1(2H)-one]
Kd (α-syn fibrils; [3]): 162 ± 13.6 nM | Absmax [1]: 372 | Emmax [1]: 551

COc1cc(-c2ccc(/C=C3/CCc4ccccc4C3=O)s2)ccc1O [compound 50, (Z)-2-((5-(4-Hydroxy-3-methoxyphenyl)thiophen-2-yl)methylene)-3,4-dihydronaphthalen-1(2H)-one]
Kd (α-syn fibrils; [3]): 111 ± 7.8 nM | Absmax [1]: 417 | Emmax [1]: 596

CN(C)c1ncc(-c2ccc(/C=C3/CCc4ccccc4C3=O)s2)cn1 [compound 51, (Z)-2-((5-(2-(Dimethylamino)pyrimidin-5-yl)thiophen-2-yl)methylene)-3,4-dihydronaphthalen-1(2H)-one]
Kd (α-syn fibrils; [3]): 107 ± 7.5 nM | Absmax [1]: 442 | Emmax [1]: 613

O=C1C(=CC2=C(Cl)c3ccccc3CC2)C(=O)c2ccccc21 [compound 52, 2-((1-Chloro-3,4-dihydronaphthalen-2-yl)methylene)-1H-indene-1,3(2H)-dione]
Kd (α-syn fibrils; [3]): > 2000 nM | Absmax [1]: 354 | Emmax [1]: 406

Cc1ccc2occ(C=C3C(=O)c4ccccc4C3=O)c(=O)c2c1 [compound 53, 2-((6-Methyl-4-oxo-4H-chromen-3-yl)methylene)-1H-indene-1,3(2H)-dione]
Kd (α-syn fibrils; [3]): > 2000 nM | Absmax [1]: 428 | Emmax [1]: 471

O=C1C(=Cc2coc3ccc(Br)cc3c2=O)C(=O)c2ccccc21 [compound 54, 2-((6-Bromo-4-oxo-4H-chromen-3-yl)methylene)-1H-indene-1,3(2H)-dione]
Kd (α-syn fibrils; [3]): > 2000 nM | Absmax [1]: 336 | Emmax [1]: 406

O=C1C(=Cc2cc3ccccc3[nH]2)C(=O)c2ccccc21 [compound 55, 2-((1H-Indol-2-yl)methylene)-1H-indene-1,3(2H)-dione]
Kd (α-syn fibrils; [3]): 1180 ± 88 nM | Absmax [1]: 384 | Emmax [1]: 519
